The record followed here is patent publication EP0164699A2, “1,2-Beta-methylene-4-androstene and 4,6-androstadiene-3,17-dione” (SCHERING AKTIENGESELLSCHAFT, priority 1984, dated 1985).

In this test the test system is Aromatase. As to the kind of experiment: Aromatase inhibition: reduction of PMSG-stimulated estradiol secretion in rats (serum estradiol by radioimmunoassay). It is filed as in vivo, Ratten. The note with it: serum of 20-day-old female rats pretreated 7 times with 100 I.U. PMSG s.c.; test substance injected 1 h before and 8 h after last PMSG; killed 24 h after last PMSG; comparison with substance A. From the text: Die durch PMSG (Pregnant Mare's Serum Gonadotropin) vermehrte Sekretion von Östradiol kann durch Applikation von Aromatasehemmern vermindert werden.
Versuch und Auswertung wurden wie folgt durchgeführt: • 20 Tage alte weibliche Ratten wurden alle 2 Tage insgesamt 7 mal mit 100 I.U. PMSG subcutan vorbehandelt. Eine Stunde vor und 8 Stunden nach der letzten PMSG-Applikation (d12) erhielten die Tiere die Testsubstanz durch Injektion. 24 Stunden nach der letzten PMSG-Applikation wurden die Tiere getötet. Im Serum wurde dann Östradiol radioimmunologisch bestimmt. In der folgenden Tabelle wird die Östradiolkonzentration in nMol/1 und die Standardabweichung angegeben. [formula]

For `C[C@]12CC[C@H]3[C@@H](C=CC4=CC(=O)[C@H]5CC5[C@@]43C)[C@@H]1CCC2=O` (some centres unmarked) [C, 1,2ß-Methylen-androsta-4,6-dien-3,17-dion], the Östradiolkonzentration result was “einen stärkeren Abfall der Östradiolkonzentration bewirken als die bekannte Substanz A”. In the case of `C[C@]12CC[C@H]3[C@@H](CCC4=CC(=O)[C@H]5CC5[C@@]43C)[C@@H]1CCC2=O` (some centres unmarked) [B, 1,2ß-Methylen-4-androsten-3,17-dion] it was “einen stärkeren Abfall der Östradiolkonzentration bewirken als die bekannte Substanz A”.
